Source: PubChem BioAssay (NCI)
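Five concentrations, 48 hours, 96-well plates. The concentration for 50% growth inhibition is given as GI50. TGI is the concentration that stops growth completely.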

Key:
Test in all cases: NCI anticancer screen, dose series, 48 h
[1] = system: 786-0 renal
[2] = system: A498 renal
[3] = system: A549 NSCLC
[4] = system: ACHN renal
[5] = system: BT-549 breast
[6] = system: CAKI-1 renal
[7] = system: CCRF-CEM leukemia
[8] = system: COLO 205 colon
[9] = system: DU-145 prostate
[10] = system: EKVX NSCLC
[11] = system: HCC-2998 colon
[12] = system: HCT-116 colon
[13] = system: HCT-15 colon
[14] = system: HL-60(TB) leukemia
[15] = system: HOP-62 NSCLC
[16] = system: HOP-92 NSCLC
[17] = system: HS 578T breast
[18] = system: HT29 colon
[19] = system: IGROV1 ovarian
[20] = system: K-562 leukemia
[21] = system: KM12 colon
[22] = system: LOX IMVI melanoma
[23] = system: M14 melanoma
[24] = system: MALME-3M melanoma
[25] = system: MCF7 breast
[26] = system: MDA-MB-231 breast
[27] = system: MDA-MB-435
[28] = system: MOLT-4 leukemia
[29] = system: NCI-H226 lung
[30] = system: NCI-H23 lung
[31] = system: NCI-H460 lung
[32] = system: NCI-H522 lung
[33] = system: NCI/ADR-RES ovarian
[34] = system: OVCAR-3 ovarian
[35] = system: OVCAR-4 ovarian
[36] = system: OVCAR-5 ovarian
[37] = system: OVCAR-8 ovarian
[38] = system: PC-3 prostate
[39] = system: RPMI-8226 leukemia
[40] = system: RXF 393 renal
[41] = system: SF-268 CNS
[42] = system: SF-295 CNS
[43] = system: SF-539 CNS
[44] = system: SK-MEL-2 melanoma
[45] = system: SK-MEL-28 melanoma
[46] = system: SK-MEL-5 melanoma
[47] = system: SK-OV-3 ovarian
[48] = system: SN12C renal
[49] = system: SNB-19 CNS
[50] = system: SNB-75 CNS
[51] = system: SR leukemia
[52] = system: SW-620 colon
[53] = system: T-47D breast
[54] = system: TK-10 renal
[55] = system: U251 CNS
[56] = system: UACC-257 melanoma
[57] = system: UACC-62 melanoma
[58] = system: UO-31 renal

## CCN(CC)c1ccc(/C=N/NC(=O)c2ccc(S(C)(=O)=O)cc2)c(O)c1
[1]
  GI50: 246 nM
  TGI: > 100000 nM
[2]
  GI50: 4980 nM
  TGI: > 100000 nM
[3]
  GI50: 542 nM
  TGI: > 100000 nM
[4]
  GI50: 179 nM
  TGI: > 100000 nM
[5]
  GI50: 596 nM
  TGI: > 39900 nM
[6]
  GI50: 199 nM
  TGI: > 100000 nM
[7]
  GI50: 82.5 nM
  TGI: > 100000 nM
[8]
  GI50: 297 nM
  TGI: > 100000 nM
[9]
  GI50: 308 nM
  TGI: > 100000 nM
[10]
  GI50: 222 nM
  TGI: > 100000 nM
[11]
  GI50: 292 nM
  TGI: > 100000 nM
[12]
  GI50: 186 nM
  TGI: > 100000 nM
[13]
  GI50: 120 nM
  TGI: > 100000 nM
[14]
  GI50: 288 nM
  TGI: 3010 nM
[15]
  GI50: 156 nM
  TGI: > 57900 nM
[16]
  GI50: 439 nM
  TGI: 32900 nM
[17]
  GI50: 6440 nM
  TGI: > 100000 nM
[18]
  GI50: 469 nM
  TGI: > 100000 nM
[19]
  GI50: 292 nM
  TGI: > 100000 nM
[20]
  GI50: 900 nM
  TGI: > 100000 nM
[21]
  GI50: 418 nM
  TGI: > 100000 nM
[22]
  GI50: 150 nM
  TGI: 2760 nM
[23]
  GI50: 210 nM
  TGI: 2450 nM
[24]
  GI50: 491 nM
  TGI: > 82400 nM
[25]
  GI50: 300 nM
  TGI: > 100000 nM
[26]
  GI50: 347 nM
  TGI: > 100000 nM
[27]
  GI50: 605 nM
  TGI: > 100000 nM
[28]
  GI50: 253 nM
  TGI: > 100000 nM
[29]
  GI50: 174 nM
  TGI: 5190 nM
[30]
  GI50: 537 nM
  TGI: > 100000 nM
[31]
  GI50: 179 nM
  TGI: 16000 nM
[32]
  GI50: 455 nM
  TGI: > 100000 nM
[33]
  GI50: 467 nM
  TGI: > 44400 nM
[34]
  GI50: 177 nM
  TGI: > 100000 nM
[35]
  GI50: 139 nM
  TGI: > 80300 nM
[36]
  GI50: 2860 nM
  TGI: > 100000 nM
[37]
  GI50: 320 nM
  TGI: > 69500 nM
[38]
  GI50: 409 nM
  TGI: > 100000 nM
[39]
  GI50: 399 nM
  TGI: > 100000 nM
[40]
  GI50: 452 nM
  TGI: > 62100 nM
[41]
  GI50: 167 nM
  TGI: > 100000 nM
[42]
  GI50: 259 nM
  TGI: > 100000 nM
[43]
  GI50: 287 nM
  TGI: 12000 nM
[44]
  GI50: 777 nM
  TGI: > 100000 nM
[45]
  GI50: 362 nM
  TGI: > 100000 nM
[46]
  GI50: 330 nM
  TGI: 2490 nM
[47]
  GI50: 251 nM
  TGI: 57800 nM
[48]
  GI50: 415 nM
  TGI: > 100000 nM
[49]
  GI50: 560 nM
  TGI: > 100000 nM
[50]
  GI50: 292 nM
  TGI: > 29300 nM
[51]
  GI50: 97.2 nM
  TGI: > 100000 nM
[52]
  GI50: 438 nM
  TGI: > 100000 nM
[53]
  GI50: 444 nM
  TGI: > 100000 nM
[54]
  GI50: 356 nM
  TGI: > 100000 nM
[55]
  GI50: 238 nM
  TGI: > 41000 nM
[56]
  GI50: 340 nM
  TGI: 5600 nM
[57]
  GI50: 306 nM
  TGI: 15100 nM
[58]
  GI50: 200 nM
  TGI: 3490 nM

## COc1cc(C2CC(c3cccc(Nc4ccnc5cc(Cl)ccc45)c3)=NN2C=O)cc(OC)c1OC (stereo not given)
[1]
  GI50: 1120 nM
  TGI: 5160 nM
[2]
  GI50: 273 nM
  TGI: 1630 nM
[3]
  GI50: 571 nM
  TGI: 10000 nM
[4]
  GI50: 1270 nM
  TGI: 5320 nM
[5]
  GI50: 419 nM
  TGI: 1700 nM
[6]
  GI50: 563 nM
  TGI: 2470 nM
[7]
  GI50: 462 nM
[8]
  GI50: 635 nM
  TGI: 7150 nM
[9]
  GI50: 1970 nM
  TGI: 11800 nM
[10]
  GI50: 1300 nM
  TGI: 26100 nM
[11]
  GI50: 2310 nM
  TGI: 24400 nM
[12]
  GI50: 381 nM
  TGI: 1640 nM
[13]
  GI50: 626 nM
  TGI: > 100000 nM
[14]
  GI50: 243 nM
  TGI: 530 nM
[15]
  GI50: 846 nM
  TGI: 8310 nM
[16]
  GI50: 2750 nM
  TGI: 85400 nM
[17]
  GI50: 545 nM
  TGI: 9360 nM
[18]
  GI50: 364 nM
  TGI: 1230 nM
[19]
  GI50: 2120 nM
  TGI: > 43200 nM
[20]
  GI50: 435 nM
  TGI: 12600 nM
[21]
  GI50: 502 nM
  TGI: > 23400 nM
[22]
  GI50: 791 nM
  TGI: 7150 nM
[23]
  GI50: 319 nM
  TGI: 2000 nM
[24]
  GI50: 825 nM
  TGI: 5140 nM
[25]
  GI50: 354 nM
  TGI: 10200 nM
[26]
  GI50: 1360 nM
  TGI: 13700 nM
[27]
  GI50: 157 nM
  TGI: 466 nM
[28]
  GI50: 595 nM
  TGI: 4440 nM
[29]
  GI50: 1980 nM
  TGI: 6150 nM
[30]
  GI50: 1400 nM
  TGI: 21500 nM
[31]
  GI50: 436 nM
  TGI: > 40400 nM
[32]
  GI50: 502 nM
  TGI: 6680 nM
[33]
  GI50: 1300 nM
  TGI: 6300 nM
[34]
  GI50: 408 nM
  TGI: 1350 nM
[35]
  GI50: 1130 nM
  TGI: 6210 nM
[36]
  GI50: 3500 nM
  TGI: 20300 nM
[37]
  GI50: 1640 nM
  TGI: > 28300 nM
[38]
  GI50: 979 nM
  TGI: 19200 nM
[39]
  GI50: 3720 nM
  TGI: > 23000 nM
[40]
  GI50: 1380 nM
  TGI: 5290 nM
[41]
  GI50: 1490 nM
  TGI: > 34800 nM
[42]
  GI50: 357 nM
  TGI: 3610 nM
[43]
  GI50: 1020 nM
  TGI: 3890 nM
[44]
  GI50: 504 nM
  TGI: 3080 nM
[45]
  GI50: 961 nM
  TGI: 4260 nM
[46]
  GI50: 454 nM
  TGI: 2340 nM
[47]
  GI50: 1350 nM
  TGI: 4140 nM
[48]
  GI50: 1140 nM
  TGI: 27200 nM
[49]
  GI50: 2520 nM
  TGI: > 100000 nM
[50]
  GI50: 310 nM
  TGI: 2300 nM
[51]
  GI50: 318 nM
  TGI: 1700 nM
[52]
  GI50: 401 nM
[53]
  GI50: 805 nM
  TGI: 5170 nM
[54]
  GI50: 1120 nM
  TGI: 4450 nM
[55]
  GI50: 393 nM
  TGI: 3460 nM
[56]
  GI50: 743 nM
  TGI: 5600 nM
[57]
  GI50: 621 nM
  TGI: 2660 nM
[58]
  GI50: 1320 nM
  TGI: 4690 nM
